Results: patent US7901879B2, “Lactoferrin in the treatment of malignant neoplasms and other hyperproliferative diseases” (Agennix Incorporated, priority 2002, dated 2011)

Test system: murine squamous carcinoma cell line (SCCVII)
Experiment: SCCVII floor-of-mouth tumor growth, oral rhLF and/or cisplatin (Example 6)
Assay type: in vivo, immunocompetent C3H mice
Experimental: A murine squamous carcinoma cell line (SCCVII) was injected into the floor of the mouth through the neck skin of immunocompetent C3H mice (Day 0). […] Tumors were measured in three dimensions with calipers.
Tumor-bearing mice were randomized into a control group and seven groups receiving rhLF and/or cisplatin. RhLF (4 mg; 200 mg/Kg) was administered once daily by oral gavage for 8 days on days 5 through 12. Cisplatin was administered as a single dose of 5 mg/Kg given intraperitoneally either at the start of rhLF (day 5), in the middle (day 8) or at the end (day 12) of rhLF therapy. Animals were sacrificed on day 12 post-implantation and the residual tumor masses were measured and processed for later additional analyses.

**Q.** What does the source list for `N.N.[Cl][Pt][Cl]` [CP, Cisplatin]?
**A.** TGI (%) Relative to Placebo (cisplatin 5 mg/kg i.p. on day 5, with rhLF 200 mg/kg oral days 5-12 where combined): 68%; TGI (%) Relative to Placebo (cisplatin 5 mg/kg i.p. on day 8, with rhLF 200 mg/kg oral days 5-12 where combined): 6%; TGI (%) Relative to Placebo (cisplatin 5 mg/kg i.p. on day 12, with rhLF 200 mg/kg oral days 5-12 where combined): 42%; TGI (%) Relative to Placebo (pooled cisplatin day 5, 8 and 12 groups): 38%
